In BindingDB's records for patent US20240150293 (Les Laboratoires Servier, 2024):

What follows are compounds tested against T1, Induced myeloid leukemia cell differentiation protein Mcl-1 [C286S] (Homo sapiens, UniProt Q07820, C286S) (assay: Method B: Inhibition of Mcl-1 by the Fluorescence Quenching Assay).
T1 construct: gene MCL1
Description: The addition of a compound which binds competitively to the same site as the peptide will result in an increase in the fluorescence intensity of the protein due to displacement of the fluorescence quencher. An 11-point serial dilution of each compound was prepared in DMSO, the final buffer conditions were 10 mM 4-(2-hydroxyethyl)-1-piperazineethanesulfonic acid [HEPES], 150 mM NaCl, 0.05% Tween 20, pH 7.4 and 5% DMSO. The final protein concentration in the assay was 1 nM with the peptide present at 10, 20 or 400 nM. The experiments were incubated for 2 hours at room temperature before fluorescence intensity was measured on a Biotek SynergyNeo plate reader (Excitation 620 nm, emission 680 nm). The dose response curves were plotted with XL-Fit software using a 4-Parameter Logistic Model (Sigmoidal DoseResponse Model) and the inhibitory concentrations that gave a 50% increase in fluorescence intensity was determined (IC50). The Ki values were determined from the IC50 values according to Cer et al, Nucleic Acids Res, 2009, 37 (WebServer issue): W441-W445. Inhibition constants (Ki) are determined from complete binding inhibition curves (cKi) or from estimated from incomplete binding inhibition curves (eKi) in most cases due to low activity.

T1 sequence (Q07820 whole entry C286S, looked up): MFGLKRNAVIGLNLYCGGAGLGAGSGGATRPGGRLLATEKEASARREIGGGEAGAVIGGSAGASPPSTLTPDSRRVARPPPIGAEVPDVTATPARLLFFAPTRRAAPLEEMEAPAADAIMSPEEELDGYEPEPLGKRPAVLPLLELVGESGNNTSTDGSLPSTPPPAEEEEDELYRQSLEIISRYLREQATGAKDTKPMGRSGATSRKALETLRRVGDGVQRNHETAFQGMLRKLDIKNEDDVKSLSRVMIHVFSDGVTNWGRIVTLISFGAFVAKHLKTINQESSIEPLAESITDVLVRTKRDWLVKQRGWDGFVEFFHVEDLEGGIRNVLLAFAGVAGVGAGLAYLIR

Ki [nM] | SMILES
4.48 | CCC1CC(O)c2nccc(OC[C@H](C)C[C@H]3Cc4ccccc4[C@]34CC[C@@](Nc3cccc(Cl)c3)(C(=O)O)CC4)c21 (stereo partly drawn) [US20240150293, Example 624]
3.91 | C[C@@H](COc1ccnc2[nH]ccc12)C[C@H]1Cc2ccccc2[C@]12CC[C@@](Nc1cccc(Cl)c1)(C(=O)O)CC2 [US20240150293, Example 626]
37.7 | C[C@@H](COc1cccc2ncsc12)C[C@H]1Cc2ccccc2[C@]12CC[C@@](Nc1cccc(Cl)c1)(C(=O)O)CC2 [US20240150293, Example 625]
